# pKi: −log10 of the molar value. Positions of bridges follow the written chain, without caps; N, C: chain ends. Non-standard residues stand in square brackets, D forms with d. Residues, ends and D or L forms follow the SMILES beside them. Groups on a side chain read outwards from the residue. *: point of attachment. Palmitoyl(16-(5-tetrazolyl)) = O=C(CCCCCCCCCCCCCCCc1nnn[nH]1)*; Lys(CH2CO2H)2 = N[C@@H](CCCCN(CC(=O)O)CC(=O)O)C(=O)O; X1 = O=C(O)CCCCCCCCCCCCCCCCC(=O)NCCOCCOCCN*; C17 diacid = O=C(O)CCCCCCCCCCCCCCCC(=O)*; Hyp = O=C(O)[C@@H]1C[C@@H](O)CN1; NTA = O=C(O)CN(CC(=O)O)CC(=O)*; hCys = N[C@@H](CCS)C(=O)O; Orn = NCCC[C@H](N)C(=O)O; Dap = NC[C@H](N)C(=O)O; AEEA = NCCOCCOCC(=O)O
# Tests used:
# [1] = target: MC1 receptor (Homo sapiens, UniProt Q01726); experiment: biochemical
# Method in brief: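 Compounds competed against 125I-NDP-α-MSH (22 pM final) for binding to stably MC1-expressing BHK cell membranes, 30 °C for 90 min in HEPES pH 7.4 buffer with 0.1% HSA or ovalbumin. Bound ligand collected by filtration and counted; binding curves analysed by non-linear regression.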
# [2] = physchem
# Method: From a stock solution in vehicle, either H2O or 10 mM phosphate, containing 1 mg (as weighed) compound per ml, 8-11 aliquots are withdrawn and pH-adjusted individually with HCl/NaOH, to cover the whole pH range.
# [3] = pH 7.4, Solubility Conc., pH 7.4, vehicle 10 mM phosphate
# [4] = pH 7.5, Solubility Conc., pH 7.5, vehicle 10 mM phosphate
# [5] = pH 7.7, Solubility Conc., pH 7.7, vehicle 10 mM phosphate
# MC1 receptor, sequence (Q01726 whole entry): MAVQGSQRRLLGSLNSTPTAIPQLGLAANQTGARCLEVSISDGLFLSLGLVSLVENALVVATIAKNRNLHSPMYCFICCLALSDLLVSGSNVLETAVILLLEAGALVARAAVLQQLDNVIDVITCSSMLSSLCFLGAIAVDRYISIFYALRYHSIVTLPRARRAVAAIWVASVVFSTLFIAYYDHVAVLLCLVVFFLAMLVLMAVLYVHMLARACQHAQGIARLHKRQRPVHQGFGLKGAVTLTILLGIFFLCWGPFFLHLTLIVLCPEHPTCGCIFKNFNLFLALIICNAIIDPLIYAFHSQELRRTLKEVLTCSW
smiles,measurement,setting,value
"CC(=O)N[C@H]1CCCCNC(=O)C[C@@H](C(=O)N2CCC[C@H]2C(=O)N2CCC[C@H]2C(=O)N[C@@H](Cc2c[nH]cn2)C(=O)N[C@@H](CO)C(=O)N[C@@H](CCCCN(CC(=O)O)CC(=O)O)C(=O)N[C@@H](CO)C(=O)N[C@@H](CO)C(=O)N[C@@H](CCC(=O)O)C(=O)N[C@@H](CCCCNC(=O)COCCOCCNC(=O)CCCCCCCCCCCCCCCC(=O)O)C(N)=O)NC(=O)[C@H](Cc2c[nH]c3ccccc23)NC(=O)[C@H](CCCNC(=N)N)NC(=O)[C@@H](Cc2ccccc2)NC(=O)[C@H](Cc2c[nH]cn2)NC1=O [Example 45, Ac-c[Lys-His-D-Phe-Arg-Trp-Asp]-Pro-Pro-His-Ser-Lys(biscarboxymethyl)-Ser-Ser-Glu-Lys({2-[2-(16-carboxyhexadecanoylamino)ethoxy]ethoxy}acetyl)-NH2] (Ac-KH[dF]RWDPPHS[Lys(CH2CO2H)2]SSEK([AEEA-C17 diacid])-NH2; lactam 1-6)",pKi,[1],< 5.00
same,solubility,"[2]; pH 6.4, Solubility Conc.",199 µM
same,solubility,"[2]; pH 6.7, Solubility Conc.",334 µM
same,solubility,"[2]; pH 6.8, Solubility Conc.",350 µM
same,solubility,"[2]; pH 7, Solubility Conc.",370 µM
same,solubility,"[2]; pH 7.3, Solubility Conc.",391 µM
same,solubility,"[2]; pH 7.5, Solubility Conc.",380 µM
same,solubility,"[2]; pH 7.7, Solubility Conc.",379 µM
same,solubility,"[2]; pH 7.9, Solubility Conc.",391 µM
same,solubility,"[2]; pH 8.1, Solubility Conc.",400 µM
"CC(=O)N[C@H]1CCC(=O)NCCCC[C@@H](C(=O)N2C[C@H](O)C[C@H]2C(=O)N2C[C@H](O)C[C@H]2C(=O)N[C@@H](CCCNC(=N)N)C(=O)N[C@@H](CC(=O)O)C(=O)N[C@@H](CCCCN(CC(=O)O)CC(=O)O)C(=O)N[C@@H](CCCCNC(=O)COCCOCCNC(=O)CCCCCCCCCCCCCCCc2nnn[nH]2)C(N)=O)NC(=O)[C@H](Cc2c[nH]c3ccccc23)NC(=O)[C@H](CCCNC(=N)N)NC(=O)[C@@H](Cc2ccccc2)NC(=O)[C@H](Cc2c[nH]cn2)NC1=O [Example 48, Ac-c[Glu-His-D-Phe-Arg-Trp-Lys]-Hyp-Hyp-Arg-Asp-Lys(biscarboxymethyl)-Lys[(2-{2-[16-(tetrazol-5-yl)hexadecanoylamino]ethoxy}ethoxy)acetyl]-NH2] (Ac-EH[dF]RWK[Hyp][Hyp]RD[Lys(CH2CO2H)2]K([AEEA-Palmitoyl(16-(5-tetrazolyl))])-NH2; lactam 1-6)",pKi,[1],< 5.00
same,solubility,"[2]; pH 6.7, Solubility Conc.",54 µM
same,solubility,"[2]; pH 7, Solubility Conc.",107 µM
same,solubility,"[2]; pH 7.3, Solubility Conc.",218 µM
same,solubility,"[2]; pH 7.4, Solubility Conc.",309 µM
same,solubility,"[2]; pH 7.5, Solubility Conc.",368 µM
same,solubility,"[2]; pH 7.6, Solubility Conc.",416 µM
same,solubility,"[2]; pH 7.8, Solubility Conc.",430 µM
same,solubility,"[2]; pH 8, Solubility Conc.",420 µM
same,solubility,"[2]; pH 8.1, Solubility Conc.",418 µM
same,solubility,"[2]; pH 8.3, Solubility Conc.",412 µM
CC(=O)N[C@H]1CCCCNC(=O)C[C@@H](C(=O)N2CCC[C@H]2C(=O)N2CCC[C@H]2C(=O)N[C@@H](Cc2c[nH]cn2)C(=O)N[C@@H](CCC(=O)O)C(=O)N[C@@H](CCC(=O)O)C(=O)N[C@@H](CO)C(=O)N[C@@H](CO)C(=O)N[C@@H](CCC(=O)O)C(=O)N[C@@H](CCCCNC(=O)COCCOCCNC(=O)CCCCCCCCCCCCCCCC(=O)O)C(N)=O)NC(=O)[C@H](Cc2c[nH]c3ccccc23)NC(=O)[C@H](CCCNC(=N)N)NC(=O)[C@@H](Cc2ccccc2)NC(=O)[C@H](Cc2c[nH]cn2)NC1=O [Example 52] (Ac-KH[dF]RWDPPHEESSEK([AEEA-C17 diacid])-NH2; lactam 1-6),pKi,[1],< 5.00
same,solubility,"[2]; pH 6.1, Solubility Conc.",169 µM
same,solubility,"[2]; pH 6.3, Solubility Conc.",339 µM
same,solubility,"[2]; pH 6.7, Solubility Conc.",376 µM
same,solubility,"[2]; pH 7, Solubility Conc.",372 µM
same,solubility,"[2]; pH 7.3, Solubility Conc.",378 µM
same,solubility,"[2]; pH 7.5, Solubility Conc.",382 µM
same,solubility,"[2]; pH 7.6, Solubility Conc.",381 µM
same,solubility,"[2]; pH 8, Solubility Conc.",391 µM
same,solubility,"[2]; pH 8.3, Solubility Conc.",390 µM
"CC(=O)N[C@H]1CCCCNC(=O)C[C@@H](C(=O)N2CCC[C@H]2C(=O)N[C@@H](CO)C(=O)N[C@@H](CO)C(=O)N[C@@H](CO)C(=O)N[C@@H](CCCCN(CC(=O)O)CC(=O)O)C(=O)N[C@@H](CO)C(=O)N[C@@H](CO)C(=O)NCCOCCOCCNC(=O)CCCCCCCCCCCCCCCCC(=O)O)NC(=O)[C@H](Cc2c[nH]c3ccccc23)NC(=O)[C@H](CCCNC(=N)N)NC(=O)[C@@H](Cc2ccccc2)NC(=O)[C@H](Cc2c[nH]cn2)NC1=O [Example 53, Ac-c[Lys-His-D-Phe-Arg-Trp-Asp]-Pro-Ser-Ser-Ser-Lys(biscarboxymethyl)-Ser-Ser-NH(2-{2-[2-(17-carboxyheptadecanoylamino)ethoxy]ethoxy}ethyl)] (Ac-KH[dF]RWDPSSS[Lys(CH2CO2H)2]SS-X1; lactam 1-6)",pKi,[1],< 5.00
same,solubility,"[2]; pH 6.6, Solubility Conc., pH 6.6, vehicle 10 mM phosphate",82 µM
same,solubility,"[2]; pH 6.9, Solubility Conc., pH 6.9, vehicle 10 mM phosphate",159 µM
same,solubility,"[2]; pH 7.2, Solubility Conc., pH 7.2, vehicle 10 mM phosphate",337 µM
same,solubility,"[2]; pH 7.3, Solubility Conc., pH 7.3, vehicle 10 mM phosphate",396 µM
same,solubility,[2]; [3],410 µM
same,solubility,[2]; [4],385 µM
same,solubility,[2]; [5],393 µM
same,solubility,"[2]; pH 7.9, Solubility Conc., pH 7.9, vehicle 10 mM phosphate",425 µM
same,solubility,"[2]; pH 8.2, Solubility Conc., pH 8.2, vehicle 10 mM phosphate",403 µM
"CC(=O)N[C@H]1CCCNC(=O)CC[C@@H](C(=O)N2CCC[C@H]2C(=O)N[C@@H](CO)C(=O)N[C@@H](CO)C(=O)N[C@@H](CO)C(=O)N[C@@H](CCCCN(CC(=O)O)CC(=O)O)C(=O)N[C@@H](CO)C(=O)N[C@@H](CO)C(=O)N[C@@H](CCCCNC(=O)COCCOCCNC(=O)CCCCCCCCCCCCCCCC(=O)O)C(N)=O)NC(=O)[C@H](Cc2c[nH]c3ccccc23)NC(=O)[C@H](CCCNC(=N)N)NC(=O)[C@@H](Cc2ccccc2)NC(=O)[C@H](Cc2c[nH]cn2)NC1=O [Example 57, Ac-c[Orn-His-D-Phe-Arg-Trp-Glu]-Pro-Ser-Ser-Ser-Lys(biscarboxymethyl)-Ser-Ser-Lys({2-[2-(16-carboxyhexadecanoylamino)ethoxy]ethoxy}acetyl)-NH2] (Ac-[Orn]H[dF]RWEPSSS[Lys(CH2CO2H)2]SSK([AEEA-C17 diacid])-NH2; lactam 1-6)",pKi,[1],< 5.00
same,solubility,"[2]; pH 6.8, Solubility Conc., pH 6.8, vehicle 10 mM phosphate",47 µM
same,solubility,"[2]; pH 7.1, Solubility Conc., pH 7.1, vehicle 10 mM phosphate",79 µM
same,solubility,[2]; [3],169 µM
same,solubility,[2]; [4],395 µM
same,Solubility Conc.,"[2]; pH 7.5, vehicle 10 mM phosphate",284 µM
same,solubility,"[2]; pH 7.6, Solubility Conc., pH 7.6, vehicle 10 mM phosphate",521 µM
same,solubility,[2]; [5],408 µM
same,solubility,"[2]; pH 7.8, Solubility Conc., pH 7.8, vehicle 10 mM phosphate",524 µM
same,solubility,"[2]; pH 8, Solubility Conc., pH 8.0, vehicle 10 mM phosphate",392 µM
"CC(=O)N[C@H]1CSSC[C@@H](C(=O)N2CCC[C@H]2C(=O)N2CCC[C@H]2C(=O)N[C@@H](CCCCN)C(=O)N[C@@H](CCC(=O)O)C(=O)N[C@@H](CCCCN(CC(=O)O)CC(=O)O)C(=O)N[C@@H](CCCCNC(=O)COCCOCCNC(=O)CCCCCCCCCCCCCCCc2nnn[nH]2)C(N)=O)NC(=O)[C@H](Cc2c[nH]c3ccccc23)NC(=O)[C@H](CCCNC(=N)N)NC(=O)[C@@H](Cc2ccccc2)NC(=O)[C@H](Cc2c[nH]cn2)NC(=O)[C@H](CCC(=O)O)NC1=O [Example 63, Ac-c[Cys-Glu-His-D-Phe-Arg-Trp-Cys]-Pro-Pro-Lys-Glu-Lys(biscarboxymethyl)-Lys[(2-{2-[16-(tetrazol-5-yl)hexadecanoylamino]ethoxy}ethoxy)acetyl]-NH2] (Ac-CEH[dF]RWCPPKE[Lys(CH2CO2H)2]K([AEEA-Palmitoyl(16-(5-tetrazolyl))])-NH2; disulfide 1-7)",pKi,[1],< 5.00
same,solubility,"[2]; pH 3.8, Solubility Conc.",33 µM
same,solubility,"[2]; pH 4.2, Solubility Conc.",23 µM
same,solubility,"[2]; pH 4.6, Solubility Conc.",28 µM
same,solubility,"[2]; pH 5.1, Solubility Conc.",78 µM
same,solubility,"[2]; pH 6, Solubility Conc.",484 µM
same,solubility,"[2]; pH 7.9, Solubility Conc.",451 µM
same,solubility,"[2]; pH 8.1, Solubility Conc.",417 µM
same,solubility,"[2]; pH 8.5, Solubility Conc.",495 µM
same,solubility,"[2]; pH 8.9, Solubility Conc.",465 µM
"CC(=O)N[C@H]1CCSSC[C@@H](C(=O)N2CCC[C@H]2C(=O)N2CCC[C@H]2C(=O)N[C@@H](CCCCN)C(=O)N[C@@H](CC(=O)O)C(=O)N[C@@H](CNC(=O)CN(CC(=O)O)CC(=O)O)C(=O)N[C@@H](CCCCNC(=O)COCCOCCNC(=O)CCCCCCCCCCCCCCCc2nnn[nH]2)C(N)=O)NC(=O)[C@H](Cc2c[nH]c3ccccc23)NC(=O)[C@H](CCCNC(=N)N)NC(=O)[C@@H](Cc2ccccc2)NC(=O)[C@H](CCC(N)=O)NC1=O [Example 66, Ac-c[homoCys-Gln-D-Phe-Arg-Trp-Cys]-Pro-Pro-Lys-Asp-Dap(BCMA)-Lys[(2-{2-[16-(tetrazol-5-yl)hexadecanoylamino]ethoxy}ethoxy)acetyl]-NH2] (Ac-[hCys]Q[dF]RWCPPKD[Dap](NTA)K([AEEA-Palmitoyl(16-(5-tetrazolyl))])-NH2; disulfide 1-6)",pKi,[1],< 5.00
same,solubility,"[2]; pH 4.8, Solubility Conc.",38 µM
same,solubility,"[2]; pH 6.4, Solubility Conc.",390 µM
same,solubility,"[2]; pH 6.5, Solubility Conc.",474 µM
same,solubility,"[2]; pH 6.7, Solubility Conc.",447 µM
same,solubility,"[2]; pH 6.9, Solubility Conc.",455 µM
same,solubility,"[2]; pH 7.2, Solubility Conc.",461 µM
same,solubility,"[2]; pH 7.4, Solubility Conc.",478 µM
same,solubility,"[2]; pH 7.6, Solubility Conc.",507 µM
same,solubility,"[2]; pH 8.1, Solubility Conc.",499 µM
